In patent US20240174603A1 (Rappta Therapeutics Oy, priority 2021, published 2024):

system: LNCaP cells; experiment: LNCaP cell viability assay (MTS); type: cell-based; conditions: Homo sapiens, LNCaP cell line, 48 hours
Description: LNCaP cell line was used for the cell viability assay. LNCaP cells were plated in 96-well plates at a density of 5000 cells per well. After 24 hours of plating, the cells were treated with increasing doses of compound (e.g., compounds 1-269) ranging from 1 μM to 80 μM. Relative cell numbers were analyzed after 48 hours using 3-(4,5-dimethylthiazol-2-yl)-5-(3-carboxymethoxyphenyl)-2-(4-sulfophenyl)-2H-tetrazolium (MTS) assay (Promega) according to the manufacturer's instructions.
The cell viability data was analyzed with GraphPad Prism software. The values were log transformed and analyzed with non-linear regression (curve-fit) using log(inhibitor) vs. response-variable slope (four parameters) and constraining the bottom to equal zero. Unless otherwise indicated, the GI50 values provided in Table 113 correspond to the LNCaP cell viability assays.

| Structure (SMILES) | GI50 [µM] |
| --- | --- |
| O=S(=O)(NC(CN1CCCC1)c1ccc(Cl)cc1)c1ccc(OC(F)(F)F)cc1 (stereo not drawn) [Compound 181, N-(1-(4-chlorophenyl)-2-(pyrrolidin-1-yl)ethyl)-4-(trifluoromethoxy)benzenesulfonamide] | 51.4 |

same assay, conditions: Homo sapiens, LNCaP, 48 h, LNCaP cell line

| GI50 [µM] | Structure (SMILES) |
| --- | --- |
| 38 | O=S(=O)(NCC1(c2cccc(C(F)(F)F)c2)CCC1)c1ccc(OC(F)(F)F)cc1 [Compound 57, 4-(trifluoromethoxy)-N-((1-(3-(trifluoromethyl)phenyl)cyclobutyl)methyl)benzenesulfonamide] |
| 49.7 | O=S(=O)(NCc1ccccc1N1CCCC1)c1ccc(OC(F)(F)F)cc1 [Compound 30, N-(2-(pyrrolidin-1-yl)benzyl)-4-(trifluoromethoxy)benzenesulfonamide] |
| 23.4 | CN1CCN(CC(NS(=O)(=O)c2ccc(OC(F)(F)F)cc2)c2ccc(Cl)cc2)CC1 (stereo not drawn) [Compound 184, N-(1-(4-chlorophenyl)-2-(4-methylpiperazin-1-yl)ethyl)-4-(trifluoromethoxy)benzenesulfonamide] |
| 49.6 | CCOC(=O)C(Cc1cccc(Cl)c1)NS(=O)(=O)c1ccc(OC(F)(F)F)cc1 (stereo not drawn) [Compound 15, Ethyl 3-(3-chlorophenyl)-2-((4-(trifluoromethoxy)phenyl)sulfonamido)propanoate] |
| 65.3 | CN(C)C(=O)[C@H](Cc1ccc(Cl)c(Cl)c1)NS(=O)(=O)c1ccc(OC(F)(F)F)cc1 [Compound 249, (S)-3-(3,4-dichlorophenyl)-N,N-dimethyl-2-((4-(trifluoromethoxy)phenyl)sulfonamido)propenamide] |
| 43.1 | O=S(=O)(NC(CN1CCNCC1)c1ccc(F)cc1)c1ccc(OC(F)(F)F)cc1 (stereo not drawn) [Compound 264, N-(1-(4-fluorophenyl)-2-(piperazin-1-yl)ethyl)-4-(trifluoromethoxy)benzenesulfonamide] |
| 31.4 | CN(C)CC(NS(=O)(=O)c1ccc(OC(F)(F)F)c(N)c1)c1ccc(Cl)c(Cl)c1 (stereo not drawn) [Compound 176, 3-amino-N-(1-(3,4-dichlorophenyl)-2-(dimethylamino)ethyl)-4-(trifluoromethoxy)benzenesulfonamide] |
| 26 | O=S(=O)(N[C@H](Cc1cc(F)c(F)cc1F)CC(F)(F)F)c1ccc(OC(F)(F)F)cc1 [Compound 85, (R)—N-(4,4,4-trifluoro-1-(2,4,5-trifluorophenyl)butan-2-yl)-4-(trifluoromethoxy)benzenesulfonamide] |
| 48 | O=S(=O)(NCCCOCCOCc1ccccc1)c1ccc(OC(F)(F)F)cc1 [Compound 89, N-(3-(2-(benzyloxy)ethoxy)propyl)-4-(trifluoromethoxy)benzenesulfonamide] |
| 55.6 | CCc1ccc(C(NS(=O)(=O)c2ccc(OC(F)(F)F)cc2)C(C)(C)C)o1 (stereo not drawn) [Compound 17, N-(1-(5-ethylfuran-2-yl)-2,2-dimethylpropyl)-4-(trifluoromethoxy)benzenesulfonamide] |
| 76.7 | COc1ccc(C)cc1CC(NS(=O)(=O)c1ccc(OC(F)(F)F)cc1)C(C)C (stereo not drawn) [Compound 18, N-(1-(2-methoxy-5-methylphenyl)-3-methylbutan-2-yl)-4-(trifluoromethoxy)benzenesulfonamide] |
| 53.6 | CN(C)CC(NS(=O)(=O)c1ccc(C(=O)NC2CCCCC2)cc1)c1ccc(Cl)c(Cl)c1 (stereo not drawn) [Compound 187, N-cyclohexyl-4-(N-(1-(3,4-dichlorophenyl)-2-(dimethylamino)ethyl)sulfamoyl)benzamide] |
| 33.6 | O=S(=O)(NCC1(c2ccccc2)CCNCC1)c1ccc(OC(F)(F)F)cc1 [Compound 260, N-((4-phenylpiperidin-4-yl)methyl)-4-(trifluoromethoxy)benzenesulfonamide] |
| 33 | CCCCN(CCNS(=O)(=O)c1ccc(OC(F)(F)F)cc1)Cc1cccc(Cl)c1 [Compound 54, N-(2-(butyl(3-chlorobenzyl)amino)ethyl)-4-(trifluoromethoxy)benzenesulfonamide] |
| 57 | CN(C)CC(NS(=O)(=O)c1ccc(OC(F)(F)F)cc1)c1ccc(Cl)cc1 (stereo not drawn) [Compound 125, N-(1-(4-chlorophenyl)-2-(dimethylamino)ethyl)-4-(trifluoromethoxy)benzenesulfonamide] |
| 22.8 | CN(C)CC(NS(=O)(=O)c1ccc(NC2CCC2)cc1)c1ccc(Cl)c(Cl)c1 (stereo not drawn) [Compound 252, 4-(cyclobutylamino)-N-(1-(3,4-dichlorophenyl)-2-(dimethylamino)ethyl)benzenesulfonamide] |

| GI50 [µM] | Structure (SMILES) |
| --- | --- |
| 31.9 | CCCOC1CCN(CC(NS(=O)(=O)c2ccc(OC(F)(F)F)cc2)c2ccc(Cl)c(Cl)c2)CC1 (stereo not drawn) [Compound 241, N-(1-(3,4-dichlorophenyl)-2-(4-propoxypiperidin-1-yl)ethyl)-4-(trifluoromethoxy)benzenesulfonamide] |
| 12.3 | CN1CCN(CC(NS(=O)(=O)c2ccc(Oc3ccccc3)cc2)c2ccc(Cl)c(Cl)c2)CC1 (stereo not drawn) [Compound 236, N-(1-(3,4-dichlorophenyl)-2-(4-methylpiperazin-1-yl)ethyl)-4-phenoxybenzenesulfonamide] |
| 13.3 | CN(C)CC(NS(=O)(=O)c1ccc(Oc2ccccc2)cc1)c1ccc(Cl)c(Cl)c1 (single isomer, unassigned) [Compound 170, N-(1-(3,4-dichlorophenyl)-2-(dimethylamino)ethyl)-4-phenoxybenzenesulfonamide] |
| 60 | COC(=O)CC(NS(=O)(=O)c1ccc(OC(F)(F)F)cc1)C1CCCCC1 (stereo not drawn) [Compound 37, Methyl 3-cyclohexyl-3-((4-(trifluoromethoxy)phenyl)sulfonamido)propanoate] |
| 22.8 | CN(C)CC(NS(=O)(=O)c1ccc(OC(F)(F)F)c(Cl)c1)c1ccc(Cl)c(Cl)c1 (single isomer, unassigned) [Compound 201, 3-chloro-N-(1-(3,4-dichlorophenyl)-2-(dimethylamino)ethyl)-4-(trifluoromethoxy)benzenesulfonamide] |
| 48.6 | O=S(=O)(NCC1(c2ccc(Cl)c(Cl)c2)CC1)c1ccc(OC(F)(F)F)cc1 [Compound 227, N-((1-(3,4-dichlorophenyl)cyclopropyl)methyl)-4-(trifluoromethoxy)benzenesulfonamide] |
| 70 | O=S(=O)(NCc1cc(Cl)ccc1OC(F)F)c1ccc(OC(F)(F)F)cc1 [Compound 62, N-(5-chloro-2-(difluoromethoxy)benzyl)-4-(trifluoromethoxy)benzenesulfonamide] |
| 72 | CCOC(=O)CC(NS(=O)(=O)c1ccc(OC(F)(F)F)cc1)c1ccc(OC(C)C)c(OC)c1 (stereo not drawn) [Compound 68, Ethyl 3-(4-isopropoxy-3-methoxyphenyl)-3-((4-(trifluoromethoxy)phenyl)sulfonamido)propanoate] |
| 20 | CC(C)(C)OC(=O)N1CC(CNS(=O)(=O)c2ccc(OC(F)(F)F)cc2)OC(C)(C)C1 (stereo not drawn) [Compound 77, Tert-butyl 2,2-dimethyl-6-(((4-(trifluoromethoxy)phenyl)sulfonamido)methyl)morpholine-4-carboxylate] |
| 19.3 | CN(C)CC(NS(=O)(=O)c1cccc(-c2ccccc2)c1)c1ccc(Cl)c(Cl)c1 (single isomer, unassigned) [Compound 197, N-(1-(3,4-dichlorophenyl)-2-(dimethylamino)ethyl)-[1,1′-biphenyl]-3-sulfonamide] |
| 51.2 | NC[C@H](NS(=O)(=O)c1ccc(OC(F)(F)F)cc1)c1ccccc1 [Compound 116, (R)—N-(2-amino-1-phenylethyl)-4-(trifluoromethoxy)benzenesulfonamide] |
| 51.8 | Cc1ccc(S(=O)(=O)NC(CN(C)C)c2ccc(Cl)c(Cl)c2)cc1 (stereo not drawn) [Compound 133, N-(1-(3,4-dichlorophenyl)-2-(dimethylamino)ethyl)-4-methylbenzenesulfonamide] |
| 12.1 | CN(C)CC(NS(=O)(=O)c1ccc(Oc2ccccc2)cc1)c1cccc(C(F)(F)F)c1 (stereo not drawn) [Compound 189, N-(2-(dimethylamino)-1-(3-(trifluoromethyl)phenyl)ethyl)-4-phenoxybenzenesulfonamide] |
| 8.18 | CN(C)CC(NS(=O)(=O)c1ccc(C2=CCOCC2)cc1)c1ccc(Cl)c(Cl)c1 (stereo not drawn) [Compound 216, N-(1-(3,4-dichlorophenyl)-2-(dimethylamino)ethyl)-4-(3,6-dihydro-2H-pyran-4-yl)benzenesulfonamide] |
| 39.1 | COC(=O)CC(NS(=O)(=O)c1ccc(OC(F)(F)F)cc1)c1ccc(OC)c(Br)c1 (stereo not drawn) [Compound 22] |
| 57.9 | CC[C@H](C)[C@H](NS(=O)(=O)c1ccc(OC(F)(F)F)cc1)C(=O)OC(C)(C)C [Compound 7, Tert-butyl ((4-(trifluoromethoxy)phenyl)sulfonyl)-L-isoleucinate] |

same assay, conditions: LNCaP cell line, 48 hours

| GI50 [µM] | Structure (SMILES) |
| --- | --- |
| 51.3 | CN(C)CC(NS(=O)(=O)c1ccc(OC(F)(F)F)cc1)c1ccc(Cl)cc1 (single isomer, unassigned) [Compound 180, N-(1-(4-chlorophenyl)-2-(dimethylamino)ethyl)-4-(trifluoromethoxy)benzenesulfonamide] |
| 1.14 | CN(C)C[C@@H](NS(=O)(=O)c1ccc(OC(F)(F)F)c([N+](=O)[O-])c1)c1ccc(Cl)c(Cl)c1 (single isomer, unassigned) [Compound 204, N-(1-(3,4-dichlorophenyl)-2-(dimethylamino)ethyl)-3-nitro-4-(trifluoromethoxy)benzenesulfonamide] |
| 9.79 | O=S(=O)(NC(CN1CC2CC1CN2)c1ccc(Cl)c(Cl)c1)c1ccc(OC(F)(F)F)cc1 (single isomer, unassigned) [Compound 261b, N-(2-(2,5-diazabicyclo[2.2.1]heptan-2-yl)-1-(3,4-dichlorophenyl)ethyl)-4-(trifluoromethoxy)benzenesulfonamide] |
